Consider 15 compounds from PubChem BioAssay AID270 (DTP/NCI, 2004).

The test system of this assay is BDF1 mice, s.c. Lewis lung carcinoma, T/C %. The assay is described as follows: NCI In Vivo Anticancer Drug Screen. Data for tumor model Lewis Lung Carcinoma (subcutaneous) in B6D2F1 (BDF1) mice. In a few lines:
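Tumor-bearing mice were treated with test compound, and either survival or tumor size was recorded. Values are the treated-group measurement divided by that of the vehicle-treated control group.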

Setting [1] is: endpoint: mean tumor weight, dose: 12.0 mg/kg/injection, schedule: Q01DX011 (ip), vehicle: saline, higher = larger tumour.
[2] abbreviates: endpoint: median survival time, dose: 2.0 mg/kg/injection, schedule: Q01DX009 (ip), vehicle: saline with Tween-80, higher = longer survival.
Where [3] appears, read: endpoint: median survival time, dose: 8.0 mg/kg/injection, schedule: Q01DX009 (ip), vehicle: saline with Tween-80, higher = longer survival.
Setting [4] is: endpoint: mean tumor weight, dose: 200.0 mg/kg/injection, schedule: Q01DX011 (ip), vehicle: carboxymethylcellulose (CMC), higher = larger tumour.
The mark [5] stands for this setting: endpoint: mean tumor weight, dose: 150.0 mg/kg/injection, schedule: Q01DX011 (ip), vehicle: carboxymethylcellulose (CMC), higher = larger tumour.

“And” between values parts separate entries of the source, which are not always exact repeats. Identical values can stand only once. Records with an inconclusive call do not appear. *1 amine or outer side, *2 acyl side, *3 side chain or, on linkers, in order; H or OH if unused. Where a SMILES comes first, the peptide text is derived from it. Bridges are numbered along the chain shown (N, C = ends). [ ]: non-standard residue; d: D form. The star is where a group is joined. X2 = CC(C)C(C)C(C(=O)[*:2])N(C)[*:1]; Picolinoyl(3-OH) = O=C(c1ncccc1O)*; NMePhg = CN[CH](C(=O)O)c1ccccc1; Hyp = O=C(O)[CH]1C[CH](O)CN1; Sar = CNCC(=O)O

As for `CC(C)CC1NC(=O)C(NC(=O)c2ncccc2O)C(C)OC(=O)C(c2ccccc2)N(C)C(=O)C(C)NC(=O)C(C(C)C(C)C)N(C)C(=O)CN(C)C(=O)C2CC(O)CN2C1=O` (stereo not given) ({Picolinoyl(3-OH)}-TL[Hyp][Sar][X2]A[NMePhg]; ester 1-C; configuration not given here), the T/C reads like this: (endpoint: mean tumor weight, dose: 5.3 mg/kg/injection, schedule: Q01DX011 (ip), vehicle: saline, higher = larger tumour) 90 % of control; (endpoint: mean tumor weight, dose: 8.0 mg/kg/injection, schedule: Q01DX011 (ip), vehicle: saline, higher = larger tumour) 86 % of control; under setting [1], 88 % of control; (endpoint: mean tumor weight, dose: 18.0 mg/kg/injection, schedule: Q01DX011 (ip), vehicle: saline, higher = larger tumour) 122 % of control.

For the compound `CC(=O)Nc1cc2c(cc1Br)-c1ccccc1C2O` (stereo not given), the T/C by setting is: (endpoint: mean tumor weight, dose: 24.0 mg/kg/injection, schedule: Q01DX011 (ip), vehicle: saline, higher = larger tumour) 47 % of control and 62 % of control and 69 % of control; (endpoint: mean tumor weight, dose: 55.0 mg/kg/injection, schedule: Q01DX011 (ip), vehicle: saline, higher = larger tumour) 31 % of control and 52 % of control and 53 % of control; (endpoint: mean tumor weight, dose: 444.0 mg/kg/injection, schedule: Q01DX011 (ip), vehicle: saline, higher = larger tumour) 26 % of control; (endpoint: mean tumor weight, dose: 666.0 mg/kg/injection, schedule: Q01DX011 (ip), vehicle: saline, higher = larger tumour) 19 % of control.

As to `Cc1cccc(C)c1[N+](=O)[O-]`, the T/C by setting is: (endpoint: mean tumor weight, dose: 133.0 mg/kg/injection, schedule: Q01DX011 (ip), vehicle: other, higher = larger tumour) 88 % of control; (endpoint: mean tumor weight, dose: 200.0 mg/kg/injection, schedule: Q01DX011 (ip), vehicle: other, higher = larger tumour) 66 % of control; (endpoint: mean tumor weight, dose: 300.0 mg/kg/injection, schedule: Q01DX011 (ip), vehicle: other, higher = larger tumour) 67 % of control.

As for `O=C(O)CCCc1ccc(N(CCCl)CCCl)cc1`, the T/C (endpoint: mean tumor weight, dose: 3.13 mg/kg/injection, schedule: Q01DX011 (ip), vehicle: saline, higher = larger tumour) was 66 % of control; the T/C (endpoint: mean tumor weight, dose: 6.25 mg/kg/injection, schedule: Q01DX011 (ip), vehicle: saline, higher = larger tumour) was 54 % of control; the T/C (endpoint: mean tumor weight, dose: 7.5 mg/kg/injection, schedule: Q01DX011 (ip), vehicle: carboxymethylcellulose (CMC), higher = larger tumour) was 55 % of control; the T/C (endpoint: mean tumor weight, dose: 12.5 mg/kg/injection, schedule: Q01DX011 (ip), vehicle: saline, higher = larger tumour) is 26 % of control; the T/C (endpoint: median survival time, dose: 1.0 mg/kg/injection, schedule: Q01DX009 (ip), vehicle: saline with Tween-80, higher = longer survival) is 113 % of control; the T/C under setting [2] is 101 % of control and 124 % of control. In addition, the T/C is 94 % of control (endpoint: median survival time, dose: 4.0 mg/kg/injection, schedule: Q01DX001 (ip), vehicle: saline with Tween-80, higher = longer survival); 112 % of control (endpoint: median survival time, dose: 8.0 mg/kg/injection, schedule: Q01DX001 (ip), vehicle: saline with Tween-80, higher = longer survival); 110 % of control and 114 % of control under setting [3]; 107 % of control (endpoint: median survival time, dose: 16.0 mg/kg/injection, schedule: Q01DX001 (ip), vehicle: saline with Tween-80, higher = longer survival); 89 % of control (endpoint: median survival time, dose: 32.0 mg/kg/injection, schedule: Q01DX001 (ip), vehicle: saline with Tween-80, higher = longer survival).

For the compound `ClCCn1cnc2c(SCc3ccccc3Cl)ncnc21`, the T/C runs as follows: (endpoint: mean tumor weight, dose: 60.0 mg/kg/injection, schedule: Q01DX011 (ip), vehicle: other, higher = larger tumour) 75 % of control; (endpoint: mean tumor weight, dose: 120.0 mg/kg/injection, schedule: Q01DX011 (ip), vehicle: other, higher = larger tumour) 58 % of control; (endpoint: mean tumor weight, dose: 240.0 mg/kg/injection, schedule: Q01DX011 (ip), vehicle: other, higher = larger tumour) 64 % of control.

Take `Cc1cc(N(CCCl)CCCl)ccc1N=Nc1ccccc1C(=O)O`: the T/C reads like this: under setting [2], 101 % of control; (endpoint: median survival time, dose: 4.0 mg/kg/injection, schedule: Q01DX009 (ip), vehicle: saline with Tween-80, higher = longer survival) 105 % of control and 111 % of control; under setting [3], 96 % of control and 104 % of control; (endpoint: median survival time, dose: 10.0 mg/kg/injection, schedule: Q01DX001 (ip), vehicle: saline with Tween-80, higher = longer survival) 107 % of control; (endpoint: median survival time, dose: 20.0 mg/kg/injection, schedule: Q01DX001 (ip), vehicle: saline with Tween-80, higher = longer survival) 92 % of control; (endpoint: median survival time, dose: 32.0 mg/kg/injection, schedule: Q04DX003 (ip), vehicle: saline with Tween-80, higher = longer survival) 116 % of control.

`COc1ccc2cc3[n+](cc2c1OC)CCc1cc2c(cc1-3)OCO2`: the T/C is, setting by setting: under setting [1], 96 % of control; (endpoint: median survival time, dose: 0.12 mg/kg/injection, schedule: Q01DX009 (ip), vehicle: Klucel (hydroxypropylcellulose) (HPC), higher = longer survival) 102 % of control; (endpoint: median survival time, dose: 0.25 mg/kg/injection, schedule: Q01DX009 (ip), vehicle: Klucel (hydroxypropylcellulose) (HPC), higher = longer survival) 107 % of control; (endpoint: median survival time, dose: 0.5 mg/kg/injection, schedule: Q01DX009 (ip), vehicle: Klucel (hydroxypropylcellulose) (HPC), higher = longer survival) 112 % of control; (endpoint: median survival time, dose: 1.0 mg/kg/injection, schedule: Q01DX009 (ip), vehicle: Klucel (hydroxypropylcellulose) (HPC), higher = longer survival) 110 % of control; (endpoint: median survival time, dose: 2.0 mg/kg/injection, schedule: Q01DX009 (ip), vehicle: Klucel (hydroxypropylcellulose) (HPC), higher = longer survival) 95 % of control. Besides, the T/C by setting is: (endpoint: median survival time, dose: 4.0 mg/kg/injection, schedule: Q01DX009 (ip), vehicle: Klucel (hydroxypropylcellulose) (HPC), higher = longer survival) 100 % of control; (endpoint: median survival time, dose: 8.0 mg/kg/injection, schedule: Q01DX009 (ip), vehicle: Klucel (hydroxypropylcellulose) (HPC), higher = longer survival) 92 % of control.

Turning to `CN[C@@H](C)[C@@H](O)c1ccccc1`, the T/C was 123 % of control (endpoint: mean tumor weight, dose: 25.0 mg/kg/injection, schedule: Q01DX011 (ip), vehicle: carboxymethylcellulose (CMC), higher = larger tumour); 85 % of control (endpoint: mean tumor weight, dose: 100.0 mg/kg/injection, schedule: Q01DX011 (ip), vehicle: carboxymethylcellulose (CMC), higher = larger tumour); 72 % of control under setting [4].

`Cn1cnc([N+](=O)[O-])c1Sc1nc(N)nc2c1ncn2C1OC(CO)C(O)C1O` (stereo not given): the T/C by setting is: (endpoint: mean tumor weight, dose: 1.0 mg/kg/injection, schedule: Q01DX011 (ip), vehicle: other, higher = larger tumour) 76 % of control; (endpoint: mean tumor weight, dose: 2.0 mg/kg/injection, schedule: Q01DX011 (ip), vehicle: other, higher = larger tumour) 64 % of control; (endpoint: mean tumor weight, dose: 4.0 mg/kg/injection, schedule: Q01DX011 (ip), vehicle: other, higher = larger tumour) 42 % of control; (endpoint: mean tumor weight, dose: 8.0 mg/kg/injection, schedule: Q01DX011 (ip), vehicle: other, higher = larger tumour) 18 % of control and 38 % of control; (endpoint: mean tumor weight, dose: 16.0 mg/kg/injection, schedule: Q01DX011 (ip), vehicle: other, higher = larger tumour) 37 % of control.

In the case of `SCc1ccccn1`, the T/C by setting is: (endpoint: mean tumor weight, dose: 37.8 mg/kg/injection, schedule: Q01DX011 (ip), vehicle: carboxymethylcellulose (CMC), higher = larger tumour) 95 % of control; (endpoint: mean tumor weight, dose: 75.5 mg/kg/injection, schedule: Q01DX011 (ip), vehicle: carboxymethylcellulose (CMC), higher = larger tumour) 97 % of control; under setting [5], 90 % of control.

With `CC(C)C1=CCC2C(=C1)CCC1C(C)(C(=O)O)CCCC21C` (stereo not given) (tested in a mixture with another compound), the T/C was 72 % of control (endpoint: mean tumor weight, dose: 50.0 mg/kg/injection, schedule: Q01DX011 (ip), vehicle: saline, higher = larger tumour); 75 % of control (endpoint: mean tumor weight, dose: 100.0 mg/kg/injection, schedule: Q01DX011 (ip), vehicle: saline, higher = larger tumour); 57 % of control (endpoint: mean tumor weight, dose: 200.0 mg/kg/injection, schedule: Q01DX011 (ip), vehicle: saline, higher = larger tumour); 45 % of control (endpoint: mean tumor weight, dose: 400.0 mg/kg/injection, schedule: Q01DX011 (ip), vehicle: saline, higher = larger tumour).

`CC1CC(C)(O)C2C3(C)CCCC2(COC3=O)C12CCC1(CCOC1=O)O2` (stereo not given): the T/C (endpoint: median survival time, dose: 2.5 mg/kg/injection, schedule: Q01DX009 (ip), vehicle: saline with Tween-80, higher = longer survival) is 109 % of control; the T/C (endpoint: median survival time, dose: 5.0 mg/kg/injection, schedule: Q01DX009 (ip), vehicle: saline with Tween-80, higher = longer survival) is 108 % of control; the T/C (endpoint: median survival time, dose: 10.0 mg/kg/injection, schedule: Q01DX009 (ip), vehicle: saline with Tween-80, higher = longer survival) is 100 % of control.

Consider `N#CCC(=O)O`, for which the T/C reads like this: (endpoint: mean tumor weight, dose: 29.0 mg/kg/injection, schedule: Q01DX011 (ip), vehicle: saline, higher = larger tumour) 103 % of control; (endpoint: mean tumor weight, dose: 44.0 mg/kg/injection, schedule: Q01DX011 (ip), vehicle: saline, higher = larger tumour) 104 % of control; (endpoint: mean tumor weight, dose: 66.0 mg/kg/injection, schedule: Q01DX011 (ip), vehicle: other, higher = larger tumour) 47 % of control; (endpoint: mean tumor weight, dose: 66.0 mg/kg/injection, schedule: Q01DX011 (ip), vehicle: saline, higher = larger tumour) 64 % of control.

`O=C(/C(=C\c1ccccc1)CN1CCOCC1)c1ccc(Br)cc1`: the T/C by setting is: (endpoint: median survival time, dose: 50.0 mg/kg/injection, schedule: Q01DX009 (ip), vehicle: saline, higher = longer survival) 113 % of control; (endpoint: median survival time, dose: 100.0 mg/kg/injection, schedule: Q01DX009 (ip), vehicle: saline, higher = longer survival) 105 % of control.

Consider `CC(=O)O[C@@H]1[C@H]2O[C@H]2[C@H]2O[C@@]2(COC(=O)c2ccccc2)[C@H]1OC(C)=O`, for which the T/C is 24 % of control under setting [5]; 307 % of control under setting [4]; 119 % of control (endpoint: mean tumor weight, dose: 300.0 mg/kg/injection, schedule: Q01DX011 (ip), vehicle: carboxymethylcellulose (CMC), higher = larger tumour); 95 % of control (endpoint: median survival time, dose: 3.12 mg/kg/injection, schedule: Q01DX009 (ip), vehicle: gum acacia, higher = longer survival); 92 % of control (endpoint: median survival time, dose: 6.25 mg/kg/injection, schedule: Q01DX009 (ip), vehicle: gum acacia, higher = longer survival); 115 % of control (endpoint: median survival time, dose: 12.5 mg/kg/injection, schedule: Q01DX009 (ip), vehicle: gum acacia, higher = longer survival). Besides, under “endpoint: median survival time, dose: 25.0 mg/kg/injection, schedule: Q01DX009 (ip), vehicle: gum acacia, higher = longer survival”, the T/C was 87 % of control.
